Data published in ChEMBL document CHEMBL4371076 (J Med Chem, 2019).
pIC50: −log10 of the molar value.

Legend:
[1] = target: T1, Sodium channel protein type 9 subunit alpha (Homo sapiens, UniProt Q15858); test: Inhibition of human Nav1.7 expressed in HEK293 cells after 600 secs at -60 mV holding potential by ion works barracuda population patch clamp method; type: cell-based
[2] = target: Sodium channel protein type 5 subunit alpha (Homo sapiens, UniProt Q14524); test: Inhibition of human Nav1.5 expressed in HEK293 cells after 600 secs at -50 mV holding potential by ion works barracuda population patch clamp method; type: cell-based
Sequence of Sodium channel protein type 5 subunit alpha (Q14524 whole entry): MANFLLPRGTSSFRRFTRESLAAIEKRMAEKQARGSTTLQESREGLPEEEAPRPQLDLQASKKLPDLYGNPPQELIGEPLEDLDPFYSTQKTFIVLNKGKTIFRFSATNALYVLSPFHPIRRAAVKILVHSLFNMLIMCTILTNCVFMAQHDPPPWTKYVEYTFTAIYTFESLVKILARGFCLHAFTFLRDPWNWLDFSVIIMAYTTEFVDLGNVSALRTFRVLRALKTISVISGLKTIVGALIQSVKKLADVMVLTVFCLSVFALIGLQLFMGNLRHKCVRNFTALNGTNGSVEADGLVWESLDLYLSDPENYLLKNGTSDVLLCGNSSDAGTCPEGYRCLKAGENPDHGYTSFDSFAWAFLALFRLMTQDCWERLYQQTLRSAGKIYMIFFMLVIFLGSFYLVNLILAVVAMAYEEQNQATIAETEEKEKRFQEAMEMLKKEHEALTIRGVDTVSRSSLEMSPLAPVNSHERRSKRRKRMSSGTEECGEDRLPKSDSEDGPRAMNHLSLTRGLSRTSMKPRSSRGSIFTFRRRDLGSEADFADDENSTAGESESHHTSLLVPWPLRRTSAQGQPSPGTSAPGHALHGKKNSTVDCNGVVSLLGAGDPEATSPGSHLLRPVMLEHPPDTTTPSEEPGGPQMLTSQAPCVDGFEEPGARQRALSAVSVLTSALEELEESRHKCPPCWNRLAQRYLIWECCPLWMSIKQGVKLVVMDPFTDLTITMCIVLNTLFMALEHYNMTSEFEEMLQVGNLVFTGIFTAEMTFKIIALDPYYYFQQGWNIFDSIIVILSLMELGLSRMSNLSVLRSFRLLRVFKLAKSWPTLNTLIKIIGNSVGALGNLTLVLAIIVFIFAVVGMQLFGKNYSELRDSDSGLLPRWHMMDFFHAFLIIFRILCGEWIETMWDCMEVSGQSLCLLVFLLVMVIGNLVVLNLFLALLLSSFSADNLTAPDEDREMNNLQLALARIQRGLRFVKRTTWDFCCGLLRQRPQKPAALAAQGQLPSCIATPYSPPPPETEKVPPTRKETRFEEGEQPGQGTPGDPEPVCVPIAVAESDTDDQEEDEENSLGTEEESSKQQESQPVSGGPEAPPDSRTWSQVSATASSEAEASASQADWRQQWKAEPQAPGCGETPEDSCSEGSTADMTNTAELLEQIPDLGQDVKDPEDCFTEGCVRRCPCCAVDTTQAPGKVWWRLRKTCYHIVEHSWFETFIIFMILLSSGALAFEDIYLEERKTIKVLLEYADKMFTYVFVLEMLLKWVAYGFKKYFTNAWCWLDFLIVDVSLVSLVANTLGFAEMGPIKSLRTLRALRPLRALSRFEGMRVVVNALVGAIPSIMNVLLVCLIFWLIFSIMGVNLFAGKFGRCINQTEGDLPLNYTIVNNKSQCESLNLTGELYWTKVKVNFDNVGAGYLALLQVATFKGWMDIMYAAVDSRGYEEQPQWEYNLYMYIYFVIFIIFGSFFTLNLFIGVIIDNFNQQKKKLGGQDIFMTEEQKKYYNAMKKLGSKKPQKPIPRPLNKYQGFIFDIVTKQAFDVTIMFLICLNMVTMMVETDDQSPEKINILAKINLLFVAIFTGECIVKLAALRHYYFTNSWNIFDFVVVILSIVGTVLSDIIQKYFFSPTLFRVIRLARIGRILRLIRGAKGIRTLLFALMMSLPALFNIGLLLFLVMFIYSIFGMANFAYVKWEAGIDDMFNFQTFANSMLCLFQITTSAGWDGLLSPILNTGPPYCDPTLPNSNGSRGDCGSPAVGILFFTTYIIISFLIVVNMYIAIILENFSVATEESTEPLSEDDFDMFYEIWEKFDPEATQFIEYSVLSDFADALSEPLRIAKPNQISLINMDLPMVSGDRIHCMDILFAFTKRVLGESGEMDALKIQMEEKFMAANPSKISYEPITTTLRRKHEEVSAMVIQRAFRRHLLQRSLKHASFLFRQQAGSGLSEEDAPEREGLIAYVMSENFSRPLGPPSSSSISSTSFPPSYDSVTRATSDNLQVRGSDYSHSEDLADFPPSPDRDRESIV

Cytochrome P450 2D6 [3] = target: T2, Cytochrome P450 2D6 (Homo sapiens, UniProt P10635); test: Inhibition of CYP2D6 in human liver microsomes; type: ADME; conditions: human, microsomes
T2 sequence (P10635 whole entry): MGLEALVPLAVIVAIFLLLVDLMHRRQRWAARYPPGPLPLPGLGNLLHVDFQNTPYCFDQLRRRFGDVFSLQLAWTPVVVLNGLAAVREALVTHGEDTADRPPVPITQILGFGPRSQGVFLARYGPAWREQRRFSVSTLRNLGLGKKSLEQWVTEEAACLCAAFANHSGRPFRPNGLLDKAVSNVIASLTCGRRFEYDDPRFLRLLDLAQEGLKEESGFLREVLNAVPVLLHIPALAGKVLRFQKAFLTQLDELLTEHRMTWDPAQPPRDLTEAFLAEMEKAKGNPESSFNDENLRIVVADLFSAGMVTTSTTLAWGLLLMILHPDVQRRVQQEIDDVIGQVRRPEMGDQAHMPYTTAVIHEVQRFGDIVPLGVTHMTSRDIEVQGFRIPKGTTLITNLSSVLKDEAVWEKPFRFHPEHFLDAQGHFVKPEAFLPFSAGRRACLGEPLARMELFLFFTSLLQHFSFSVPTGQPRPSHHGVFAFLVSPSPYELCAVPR

[4] = Metabolic stability in mouse liver microsomes assessed as parent compound remaining at 0.5 uM after 10 mins; type: ADME, Microsome; conditions: read-out: Stability
[5] = Metabolic stability in rat liver microsomes assessed as parent compound remaining at 0.5 uM after 10 mins; type: ADME, Microsome; conditions: read-out: Stability
Cytochrome P450 2B6 [6] = target: T3, Cytochrome P450 2B6 (Homo sapiens, UniProt P20813); test: Inhibition of CYP2B6 in human liver microsomes; type: ADME; conditions: human, microsomes
T3 sequence (P20813 whole entry): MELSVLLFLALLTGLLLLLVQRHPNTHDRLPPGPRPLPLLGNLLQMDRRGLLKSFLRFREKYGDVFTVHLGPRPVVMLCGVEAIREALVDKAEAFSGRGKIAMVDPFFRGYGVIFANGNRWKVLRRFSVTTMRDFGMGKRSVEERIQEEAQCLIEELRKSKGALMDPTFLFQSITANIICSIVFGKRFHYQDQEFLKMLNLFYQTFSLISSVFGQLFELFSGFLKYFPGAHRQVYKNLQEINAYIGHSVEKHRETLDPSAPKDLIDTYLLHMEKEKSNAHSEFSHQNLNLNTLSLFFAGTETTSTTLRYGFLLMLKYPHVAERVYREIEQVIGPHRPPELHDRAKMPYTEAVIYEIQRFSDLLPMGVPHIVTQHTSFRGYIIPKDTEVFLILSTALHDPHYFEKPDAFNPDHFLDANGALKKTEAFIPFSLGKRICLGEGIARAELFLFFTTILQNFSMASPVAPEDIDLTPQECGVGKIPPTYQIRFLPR

Cytochrome P450 2C9 [7] = target: T4, Cytochrome P450 2C9 (Homo sapiens, UniProt P11712); test: Inhibition of CYP2C9 in human liver microsomes; type: ADME; conditions: human, microsomes
[8] = Permeability of the compound at pH 7.4 by PAMPA; type: ADME; conditions: read-out: permeability
[9] = Metabolic stability in human liver microsomes assessed as parent compound remaining at 0.5 uM after 10 mins; type: ADME, Microsome; conditions: read-out: Stability
Cytochrome P450 3A4 [10] = target: T5, Cytochrome P450 3A4 (Homo sapiens, UniProt P08684); test: Time-dependant inhibition of CYP3A4 in human liver microsomes; type: ADME
Cytochrome P450 2B6 [11] = target: T3, Cytochrome P450 2B6; test: Time-dependant inhibition of CYP2B6 in human liver microsomes; type: ADME
Cytochrome P450 2C19 [12] = target: T6, Cytochrome P450 2C19 (Homo sapiens, UniProt P33261); test: Inhibition of CYP2C19 in human liver microsomes; type: ADME; conditions: human, microsomes
T6 sequence (P33261 whole entry): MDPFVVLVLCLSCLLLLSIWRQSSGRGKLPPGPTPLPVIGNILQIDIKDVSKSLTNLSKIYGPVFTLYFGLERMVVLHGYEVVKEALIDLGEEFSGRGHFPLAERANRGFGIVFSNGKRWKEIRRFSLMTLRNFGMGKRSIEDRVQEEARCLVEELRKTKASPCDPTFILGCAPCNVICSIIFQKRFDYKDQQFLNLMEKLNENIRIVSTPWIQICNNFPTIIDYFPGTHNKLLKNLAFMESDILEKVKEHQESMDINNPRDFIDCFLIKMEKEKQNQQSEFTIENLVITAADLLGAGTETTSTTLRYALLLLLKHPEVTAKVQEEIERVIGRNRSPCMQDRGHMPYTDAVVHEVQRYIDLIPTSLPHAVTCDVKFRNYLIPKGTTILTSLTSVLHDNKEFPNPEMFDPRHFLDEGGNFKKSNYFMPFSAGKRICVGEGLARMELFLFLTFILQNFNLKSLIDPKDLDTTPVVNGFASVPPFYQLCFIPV

[13] = Fraction unbound in mouse plasma; type: ADME, cell-free
Cytochrome P450 2C8 [14] = target: T7, Cytochrome P450 2C8 (Homo sapiens, UniProt P10632); test: Time-dependant inhibition of CYP2C8 in human liver microsomes; type: ADME
T7 sequence (P10632 whole entry): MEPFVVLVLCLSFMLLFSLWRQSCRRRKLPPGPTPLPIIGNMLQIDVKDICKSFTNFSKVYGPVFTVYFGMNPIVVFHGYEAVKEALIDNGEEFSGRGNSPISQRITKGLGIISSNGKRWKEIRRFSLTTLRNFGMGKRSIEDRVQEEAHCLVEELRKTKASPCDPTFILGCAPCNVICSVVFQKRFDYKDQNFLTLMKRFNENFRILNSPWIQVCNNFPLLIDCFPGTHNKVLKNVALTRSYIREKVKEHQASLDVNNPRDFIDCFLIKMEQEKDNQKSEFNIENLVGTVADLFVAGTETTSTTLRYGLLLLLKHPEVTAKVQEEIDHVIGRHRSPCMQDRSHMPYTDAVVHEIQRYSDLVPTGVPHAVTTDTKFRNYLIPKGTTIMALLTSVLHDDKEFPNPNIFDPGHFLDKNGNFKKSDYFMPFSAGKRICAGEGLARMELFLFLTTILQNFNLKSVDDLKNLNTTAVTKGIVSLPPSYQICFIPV

Cytochrome P450 3A4 [15] = target: T5, Cytochrome P450 3A4; test: Inhibition of CYP3A4 in human liver microsomes; type: ADME; conditions: human, microsomes
[16] = target: T1, Sodium channel protein type 9 subunit alpha; test: Inhibition of recombinant human Nav1.7 expressed in HEK293 cells at -70 mV holding potential by patch clamp electrophysiology method; type: cell-based
Cytochrome P450 2C8 [17] = target: T7, Cytochrome P450 2C8; test: Inhibition of CYP2C8 in human liver microsomes; type: ADME; conditions: human, microsomes
Cytochrome P450 2C19 [18] = target: T6, Cytochrome P450 2C19; test: Time-dependant inhibition of CYP2C19 in human liver microsomes; type: ADME
Cytochrome P450 2C9 [19] = target: T4, Cytochrome P450 2C9; test: Time-dependant inhibition of CYP2C9 in human liver microsomes; type: ADME
Cytochrome P450 2D6 [20] = target: T2, Cytochrome P450 2D6; test: Time-dependant inhibition of CYP2D6 in human liver microsomes; type: ADME
[21] = Permeability of the compound at pH 5.5 by PAMPA; type: ADME; conditions: read-out: permeability
[22] = Fraction unbound in human plasma; type: ADME, cell-free

T1 sequence (Q15858 whole entry): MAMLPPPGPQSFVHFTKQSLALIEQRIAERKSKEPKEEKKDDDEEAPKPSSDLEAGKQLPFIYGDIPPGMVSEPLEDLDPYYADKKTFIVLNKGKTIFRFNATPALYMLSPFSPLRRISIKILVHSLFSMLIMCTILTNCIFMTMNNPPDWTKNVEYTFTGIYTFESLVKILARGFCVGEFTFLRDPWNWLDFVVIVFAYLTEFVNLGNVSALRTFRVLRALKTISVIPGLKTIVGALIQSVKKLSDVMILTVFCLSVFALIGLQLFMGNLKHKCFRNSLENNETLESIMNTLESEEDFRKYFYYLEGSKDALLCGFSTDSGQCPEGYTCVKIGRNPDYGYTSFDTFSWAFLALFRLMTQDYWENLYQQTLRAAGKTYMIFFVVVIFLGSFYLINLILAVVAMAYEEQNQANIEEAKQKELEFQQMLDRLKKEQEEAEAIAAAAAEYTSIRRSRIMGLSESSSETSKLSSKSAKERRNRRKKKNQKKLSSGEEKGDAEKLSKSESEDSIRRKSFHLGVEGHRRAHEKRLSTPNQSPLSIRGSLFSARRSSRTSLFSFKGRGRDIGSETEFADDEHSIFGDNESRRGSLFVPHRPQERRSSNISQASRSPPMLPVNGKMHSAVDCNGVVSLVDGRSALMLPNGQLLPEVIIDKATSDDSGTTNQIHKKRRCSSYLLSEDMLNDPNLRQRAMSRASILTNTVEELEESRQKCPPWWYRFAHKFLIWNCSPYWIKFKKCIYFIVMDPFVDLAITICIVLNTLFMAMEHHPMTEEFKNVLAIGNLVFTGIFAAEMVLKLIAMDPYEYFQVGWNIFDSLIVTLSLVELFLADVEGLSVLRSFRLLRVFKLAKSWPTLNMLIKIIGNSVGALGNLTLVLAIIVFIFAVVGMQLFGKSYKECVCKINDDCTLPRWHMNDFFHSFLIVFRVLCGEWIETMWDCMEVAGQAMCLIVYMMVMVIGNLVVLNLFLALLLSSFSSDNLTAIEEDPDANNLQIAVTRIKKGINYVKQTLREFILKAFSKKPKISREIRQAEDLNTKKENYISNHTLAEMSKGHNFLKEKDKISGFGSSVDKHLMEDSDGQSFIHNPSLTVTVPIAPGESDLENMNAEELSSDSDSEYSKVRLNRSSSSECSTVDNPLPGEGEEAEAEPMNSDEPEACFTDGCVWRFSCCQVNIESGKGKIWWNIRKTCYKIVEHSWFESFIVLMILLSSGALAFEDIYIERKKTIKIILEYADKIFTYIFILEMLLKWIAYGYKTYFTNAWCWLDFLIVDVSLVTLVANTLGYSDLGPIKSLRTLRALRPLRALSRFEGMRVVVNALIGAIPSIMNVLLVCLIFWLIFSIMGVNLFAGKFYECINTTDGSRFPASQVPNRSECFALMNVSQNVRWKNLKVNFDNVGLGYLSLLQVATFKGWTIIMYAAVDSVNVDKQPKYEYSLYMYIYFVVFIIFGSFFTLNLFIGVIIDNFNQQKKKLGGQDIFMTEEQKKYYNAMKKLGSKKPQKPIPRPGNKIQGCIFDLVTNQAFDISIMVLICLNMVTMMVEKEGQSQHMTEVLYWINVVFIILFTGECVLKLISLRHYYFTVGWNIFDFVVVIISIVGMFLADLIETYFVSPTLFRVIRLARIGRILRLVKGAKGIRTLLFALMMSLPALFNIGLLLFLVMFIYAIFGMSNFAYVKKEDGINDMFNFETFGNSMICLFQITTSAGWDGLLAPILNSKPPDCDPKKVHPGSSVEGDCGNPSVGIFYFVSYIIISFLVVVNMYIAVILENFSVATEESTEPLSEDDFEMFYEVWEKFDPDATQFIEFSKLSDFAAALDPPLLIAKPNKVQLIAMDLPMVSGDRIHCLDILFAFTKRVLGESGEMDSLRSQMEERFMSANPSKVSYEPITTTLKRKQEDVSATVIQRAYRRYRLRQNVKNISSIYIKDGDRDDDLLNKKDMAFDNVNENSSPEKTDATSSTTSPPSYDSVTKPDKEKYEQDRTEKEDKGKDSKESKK

Compound	pIC50 [1]	pIC50 [2]	further results
Cn1cc(-c2cnc(OCC(C)(C)O)c(Cl)c2)c2ccc(C(=O)NS(C)(=O)=O)cc21	< 4.52	< 4.52	–
Cn1nc(-c2ccc(C(F)(F)F)cc2)c2cc(F)c(C(=O)NS(C)(=O)=O)cc21	7.28	< 4.52	–
CC(C)COc1ccc(-c2nn(C)c3cc(C(=O)NS(=O)(=O)C4CC4)c(F)cc23)cn1	7.35	4.96	inhibition (INH) (Cytochrome P450 2D6 [3]): Not Active; remaining at 10 min, 0.5 µM [4]: 92%; remaining at 10 min, 0.5 µM [5]: 88%; inhibition (INH) (Cytochrome P450 2B6 [6]): Not Active; inhibition (INH) (Cytochrome P450 2C9 [7]): Not Active; Papp [8]: 10 ×10⁻⁶ cm/s; remaining at 10 min, 0.5 µM [9]: 91%; TDI (Cytochrome P450 3A4 [10]): Not Active; TDI (Cytochrome P450 2B6 [11]): Not Active; inhibition (INH) (Cytochrome P450 2C19 [12]): Not Active; fraction unbound [13]: 0.011; TDI (Cytochrome P450 2C8 [14]): Not Active; inhibition (INH) (Cytochrome P450 3A4 [15]): Not Active; pIC50 [16]: 7.37; inhibition (INH) (Cytochrome P450 2C8 [17]): Not Active; TDI (Cytochrome P450 2C19 [18]): Not Active; TDI (Cytochrome P450 2C9 [19]): Not Active; TDI (Cytochrome P450 2D6 [20]): Not Active; Papp [21]: 76.2 ×10⁻⁶ cm/s
CC(C)COc1ncc(-c2cn(C)c3cc(C(=O)NS(C)(=O)=O)ccc23)cc1C#N	7.15	4.68	–
CC(C)COc1ncc(-c2c3ccc(C(=O)NS(=O)(=O)C4CC4)cc3nn2C)cc1Cl	6.72	–	–
Cn1cc(-c2cnc(OCC(F)(F)F)c(Cl)c2)c2ccc(C(=O)NS(C)(=O)=O)cc21	7.20	4.92	–
Cn1cc(-c2ccc(C(F)F)cc2)c2cc(F)c(C(=O)NS(C)(=O)=O)cc21	–	< 4.52	–
COc1cc(-c2cn(C)c3cc(C(=O)NS(C)(=O)=O)ccc23)cnc1OCC(C)C	6.29	< 4.52	–
CC(C)COc1ncc(-c2cn(C)c3cc(C(=O)NS(=O)(=O)C4CC4)cnc23)cc1Cl	5.70	–	–
Cn1cc(-c2ccc(C(F)(F)F)cc2)c2ccc(C(=O)NS(=O)(=O)c3ccc(F)c(F)c3)cc21	< 5.52	–	–
CC(C)COc1ncc(-c2cn(C)c3nc(C(=O)NS(C)(=O)=O)ccc23)cc1Cl	5.85	–	–
Cn1cc(-c2ccc(OC(F)(F)F)cc2)c2ccc(C(=O)NS(C)(=O)=O)cc21	7.10	4.80	–
CC(C)COc1ncc(-c2cn(C)c3cc(C(=O)NS(C)(=O)=O)cnc23)cc1Cl	5.11	–	–
CC(C)COc1ncc(-c2n[nH]c3cc(C(=O)NS(C)(=O)=O)ccc23)cc1Cl	6.55	–	–
Cn1cc(-c2ccccc2)c2ccc(C(=O)NS(C)(=O)=O)cc21	–	< 4.52	–
CN(C)S(=O)(=O)NC(=O)c1ccc2c(-c3ccc(C(F)(F)F)cc3)cn(C)c2c1	5.77	4.72	–
Cn1cc(-c2ccc(C(F)(F)F)cc2)c2ccc(C(=O)NS(=O)(=O)C3CC3)cc21	6.98	5.08	inhibition (INH) (Cytochrome P450 2D6 [3]): Not Active; remaining at 10 min, 0.5 µM [4]: 87%; remaining at 10 min, 0.5 µM [5]: 92%; inhibition (INH) (Cytochrome P450 2B6 [6]): Not Active; inhibition (INH) (Cytochrome P450 2C9 [7]): Not Active; Papp [8]: 13.5 ×10⁻⁶ cm/s; remaining at 10 min, 0.5 µM [9]: 87%; TDI (Cytochrome P450 3A4 [10]): Not Active; TDI (Cytochrome P450 2B6 [11]): Not Active; inhibition (INH) (Cytochrome P450 2C19 [12]): Not Active; fraction unbound [13]: 0.004; TDI (Cytochrome P450 2C8 [14]): Not Active; fraction unbound [22]: 0.002; inhibition (INH) (Cytochrome P450 3A4 [15]): Not Active; pIC50 [16]: 8.10; inhibition (INH) (Cytochrome P450 2C8 [17]): Not Active; TDI (Cytochrome P450 2C19 [18]): Not Active; TDI (Cytochrome P450 2C9 [19]): Not Active; TDI (Cytochrome P450 2D6 [20]): Not Active; Papp [21]: 52.5 ×10⁻⁶ cm/s
Cn1cc(-c2cnc(OCC3CC3)c(Cl)c2)c2ccc(C(=O)NS(C)(=O)=O)cc21	6.91	–	–
CC(C)COc1ncc(-c2nn(C)c3cc(C(=O)NS(=O)(=O)C4CC4)ccc23)cc1Cl	6.98	5.23	–

Compound	pIC50 [1]	pIC50 [2]	further results
Cn1cc(-c2ccc(C(F)(F)F)cc2)c2ccc(C(=O)NS(=O)(=O)C3CC3)nc21	6.19	–	–
Cc1cccc(-c2cn(C)c3cc(C(=O)NS(C)(=O)=O)ccc23)c1	–	< 4.52	–
COc1cc(-c2cn(C)c3cc(C(=O)NS(=O)(=O)C4CC4)ccc23)cnc1OCC(C)C	7.07	< 4.52	–
Cn1cc(-c2ccc(C(F)(F)F)cc2)c2ccc(C(=O)NS(C)(=O)=O)nc21	5.52	–	–
CC(C)COc1ncc(-c2cn(C(C)C)c3cc(C(=O)NS(C)(=O)=O)ccc23)cc1Cl	–	5.77	–
CC(C)COc1ccc(-c2cn(C)c3cc(C(=O)NS(C)(=O)=O)ccc23)cn1	6.79	< 4.52	–
CCc1cccc(-c2cn(C)c3cc(C(=O)NS(C)(=O)=O)ccc23)c1	–	< 4.52	–
CC(C)COc1ccc(-c2nn(C)c3cc(C(=O)NS(C)(=O)=O)c(F)cc23)cn1	6.77	< 4.52	–
CCc1ccc(-c2cn(C)c3cc(C(=O)NS(C)(=O)=O)ccc23)cc1	–	< 4.52	–
Cn1nc(-c2ccc(C(F)(F)F)cc2)c2ccc(C(=O)NS(C)(=O)=O)cc21	6.71	< 4.52	–
Cn1cc(-c2ccc(C(F)F)cc2)c2ccc(C(=O)NS(C)(=O)=O)cc21	–	< 4.52	–
Cn1cc(-c2cnc(OCC(F)F)c(Cl)c2)c2ccc(C(=O)NS(C)(=O)=O)cc21	6.07	< 4.52	–
Cn1cc(-c2ccc(C(F)F)cc2)c2ccc(C(=O)NS(=O)(=O)C3CC3)cc21	–	< 4.52	–
Cn1cc(-c2ccc(C(F)(F)F)cc2)c2cnc(C(=O)NS(C)(=O)=O)cc21	< 4.52	–	–
Cc1ccc(-c2cn(C)c3cc(C(=O)NS(C)(=O)=O)ccc23)cc1	–	< 4.52	–
Cn1cc(-c2cccnc2)c2ccc(C(=O)NS(C)(=O)=O)cc21	< 5.52	–	–
CC(C)COc1ccc(-c2cn(C)c3cc(C(=O)NS(C)(=O)=O)ccc23)cc1	6.28	4.74	–
Cn1cc(-c2cccc(F)c2F)c2ccc(C(=O)NS(C)(=O)=O)cc21	–	< 4.52	–
CC(C)COc1ccc(-c2nn(C)c3cc(C(=O)NS(C)(=O)=O)ccc23)cn1	6.50	< 4.52	–
